Patent US20080221103A1, “New heterocyclic compounds” (ORCHID RESEARCH LABORATORIES LTD., priority 2007, published 2008)

What was measured:
TNF-α [1] = test: In vitro measurement of TNF-α production in LPS-stimulated human PBMC (ELISA); format: cell-based; settings: LPS 1 μg/ml, 18 h; for inhibition at 1 µM: read-out: TNF-α Inhibition (%) at Conc. (1 μM); for inhibition at 10 µM: read-out: TNF-α Inhibition (%) at Conc. (10 μM)
Method: This assay determines the effect of test compounds on the production of TNF-α in human Peripheral Blood Mononuclear Cells (PBMC). Compounds were tested for their ability to inhibit the activity of TNF-α in human PBMC. PBMC were isolated from blood (of healthy volunteers) using BD Vacutainer CPT™ (Cell preparation tube, BD Bio Science) and suspended in RPMI medium (Physiol. Res. 52: 593-598, 2003). The test compounds were pre-incubated with PBMC (0.5 million/incubation well) for 15 min. at 37° C. and then stimulated with Lipopolysaccharide (Escherichia coli: B4; 1 μg/ml) for 18 h at 37° C. in 5% CO2. The levels of TNF-α in the cell culture medium were estimated using enzyme-linked immunosorbent assay performed in a 96 well format as per the procedure of the manufacturer (Cayman Chemical, Ann Arbor, USA).

U251 cells = test: Anti-cancer screen (MTT), U251; format: cell-based; settings: Homo sapiens, U-251, 48 h, concentrations tested 0.01-100 μM
Method: (§1) Experimental drugs are screened for anti-cancer activity in three cell lines for their GI50, TGI and LC50 values (using 5 concentrations for each compound). The cell lines are maintained in DMEM containing 10% fetal bovine serum. 96 well microtiter plates are inoculated with cells in 100 μL for 24 hours at 37° C., 5% CO2, 95% air and 100% relative humidity. 5000 HCT116 cells/well, 5000 NCIH460 cells/well, 10000 U251 cells/well and 5000 MDAMB231 cells/well are plated. A separate plate with these cell lines is also inoculated to determine cell viability before the addition of the compounds (T0).
(§2) Following 24-h incubation, experimental drugs are added to the 96 well plates. […]
(§3) Cells are incubated with compounds for 48 h followed by the addition of 10 μL 3-(4,5-Dimethyl-2-thiazolyl)-2,5-diphenyl-2H-tetrazolium (MTT) solution per well and a subsequent incubation at 37° C., 5% CO2, 95% air and 100% relative humidity, protected from light. […] Plates are agitated to ensure solution of the formazan crystals in DMSO and absorbance read at 570 nm.
(§4) Percent growth is calculated for each compound's concentration relative to the control and zero measurement wells (T0; viability right before compound addition). […]

NCIH460, HCT116, U251 = test: Anti-cancer screen (MTT), mean over three cell lines; format: cell-based; settings: mean of NCIH460, HCT116, U251
Method: as §1, §2, §3, §4

NCIH460 cells = test: Anti-cancer screen (MTT), NCIH460; format: cell-based; settings: Homo sapiens, NCI-H460, 48 h, concentrations tested 0.01-100 μM
Method: as §1, §2, §3, §4

HCT116 cells = test: Anti-cancer screen (MTT), HCT116; format: cell-based; settings: Homo sapiens, HCT-116, 48 h, concentrations tested 0.01-100 μM
Method: as §1, §2, §3, §4

Thromboxane synthase = target: T1, Thromboxane synthase (Homo sapiens, UniProt P24557); test: Thromboxane synthase activity; format: biochemical; settings: source human platelets, TxB2 EIA
T1 construct: Source: Human Platelets; from tissue; host or cells: Human platelets
T1 sequence (P24557 1-533): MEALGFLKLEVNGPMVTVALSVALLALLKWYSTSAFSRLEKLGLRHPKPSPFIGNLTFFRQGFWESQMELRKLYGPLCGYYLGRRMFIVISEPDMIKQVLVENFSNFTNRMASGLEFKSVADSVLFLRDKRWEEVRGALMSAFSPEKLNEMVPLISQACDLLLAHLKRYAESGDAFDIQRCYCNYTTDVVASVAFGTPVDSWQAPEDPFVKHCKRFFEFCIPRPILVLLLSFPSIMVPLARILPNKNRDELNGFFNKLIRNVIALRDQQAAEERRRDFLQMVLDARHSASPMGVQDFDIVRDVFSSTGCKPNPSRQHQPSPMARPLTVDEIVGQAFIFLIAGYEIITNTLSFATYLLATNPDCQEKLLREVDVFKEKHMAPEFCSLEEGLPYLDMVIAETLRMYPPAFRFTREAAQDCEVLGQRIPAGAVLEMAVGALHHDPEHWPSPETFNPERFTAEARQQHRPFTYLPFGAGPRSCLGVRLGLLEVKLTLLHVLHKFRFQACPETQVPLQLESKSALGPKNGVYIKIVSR
Method: The assay method involves the following conditions.
Pre-incubation Time/Temp.: 15 min at 25° C.
Incubation Time/Temp.: 3 min at 25° C.
Incubation buffer: 10 mM Tris-HCl, pH 7.4 Quantitation method: EIA quantitation of TxB2 Significance criteria: >50% of maximum stimulation or inhibition The results are tabulated as shown in the table VI.

PDE4 = PDE4 activity; format: biochemical; settings: source human U937 cells
Method: PDE4 inhibition was measured by following a literature assay procedure (Cortizo J et al., J. Pharmacol., 1993, 108, 562-568). The assay method involves the following conditions.
Pre-Incubation Time/Temperature: 15 min at 25° C.
Incubation Time/Temperature. 20 min at 25° C.
Incubation buffer: 50 mM Tris-HCl, pH 7.5, 5 mM MgCl2 Quantitation method: Quantitation of [^3H]

5-LOX = target: T2, 5-LOX (Homo sapiens, UniProt P09917); test: 5-LOX activity; format: biochemical; settings: source human PBML cells, LTB4 EIA
T2 construct: Source: Human PBML cells Substrate: Arachidonic acid; endogenous in cells; host or cells: Human PBML cells (peripheral blood mononuclear leukocytes)
T2 sequence (P09917 1-674): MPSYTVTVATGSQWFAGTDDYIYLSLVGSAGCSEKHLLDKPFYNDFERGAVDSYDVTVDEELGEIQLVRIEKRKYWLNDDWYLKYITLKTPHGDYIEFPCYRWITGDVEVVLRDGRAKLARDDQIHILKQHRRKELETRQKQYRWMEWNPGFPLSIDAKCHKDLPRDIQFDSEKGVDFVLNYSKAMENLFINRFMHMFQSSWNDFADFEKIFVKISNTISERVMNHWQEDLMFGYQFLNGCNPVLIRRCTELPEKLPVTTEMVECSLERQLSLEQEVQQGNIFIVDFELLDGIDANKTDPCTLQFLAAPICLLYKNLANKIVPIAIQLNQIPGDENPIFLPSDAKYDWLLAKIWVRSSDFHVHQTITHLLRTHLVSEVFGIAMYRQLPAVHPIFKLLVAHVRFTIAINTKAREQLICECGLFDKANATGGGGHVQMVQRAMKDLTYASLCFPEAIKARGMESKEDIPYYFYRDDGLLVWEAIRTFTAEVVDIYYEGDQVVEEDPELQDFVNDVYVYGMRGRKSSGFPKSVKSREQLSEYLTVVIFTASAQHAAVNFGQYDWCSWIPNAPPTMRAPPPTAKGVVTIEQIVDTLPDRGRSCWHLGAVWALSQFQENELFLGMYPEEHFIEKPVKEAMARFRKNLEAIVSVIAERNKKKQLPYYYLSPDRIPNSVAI
Method: The assay method involves the following conditions. Source: Human PBML cells Substrate: Arachidonic acid
Pre-incubation Time/Temp.: 15 min at 37° C.
Incubation Time/Temp.: 15 min at 37° C.
Incubation buffer: HBSS (Hank's balanced salt solution) Quantitation method: EIA quantitation of LTB4 Significance criteria: >50% of maximum stimulation or inhibition The results are tabulated as shown in the table V.

TNF-α [2] = test: LPS induced sepsis for measurement of TNF-α inhibition in mice; format: in vivo; settings: Mus musculus, 1.5 h; oral dosing; serum TNF-α 90 min after LPS i.p.
Method: The LPS induced sepsis model in mice was performed as described by Les sekut et al (J Lab Clin Med, 1994, 124, 813-820). Female Swiss albino mice were selected and the body weights were equivalent within each group. The mice were fasted for 20 h with free access to water. The mice were dosed orally with the test compound suspended in vehicle containing 0.5% Tween 80 in 0.25% Carboxy-methylcellulose sodium salt. The control mice were administered the vehicle alone. After 30 minutes of oral dosing, mice were injected with 500 μg of Lipopolysaccharide (Escherichia coli, LPS: B4 from Siga) in phosphate buffer saline solution into the intraperitoneal cavity of the mice. After 90 min of LPS administration mice were bled via retro-orbital sinus puncture. Blood samples were stored overnight at 4° C. Serum samples were collected by centrifuging the samples at 4000 rpm for 15 minutes at 4° C. Immediately the serum samples were analysed for TNF-α levels using commercially available mouse TNF-α ELISA kit (Amersham Biosciences) and assay was performed by the manufacturer instruction.

DSS Induced colitis = test: IBD-DSS model (DSS induced colitis test); format: in vivo; settings: dosed Day 1 to 6, BALB/c mice, DSS 2%
Method: DSS Induced colitis test was performed as described by Axelsson et al., 1998. Male BALB/c mice were selected in the age of 7-8 weeks for the study. Colitis in mice was induced by providing DSS (2%) in the drinking water from day 1 to 6. Mice were dosed from Day 1 to 6 with test compound suspended in vehicle containing 0.25% carboxymethylcellulose and 0.5% Tween 80. The control animals received vehicle alone. Body weight and disease activity index was recorded daily during the experiment. After 6 days of treatment, animals were sacrificed; colon weight and colon length was recorded.

Compound | inhibition at 1 µM (TNF-α [1]) | inhibition at 10 µM (TNF-α [1]) | further results
COc1ccc(-c2nc(NN3C(=O)C=C(C)C3=O)c(C#N)c(SC)n2)cc1 [Example 2, 4-(Thiomethyl)-2-(4-methoxyphenyl)-6-(3-methyl-2,5-dioxo-2,5-dihydro-1H-pyrrol-1-ylamino)pyrimidine-5-carbonitrile] | 50.9% | 95.4% | 
CSc1nc(-c2cccc(S(N)(=O)=O)c2)nc(NN2C(=O)C=C(C)C2=O)c1C#N [Example 10, 3-(5-Cyano-4-(3-methyl-2,5-dioxo-2,5-dihydro-1H-pyrrol-1-ylamino)-6-(methylthio)pyrimidin-2-yl)benzenesulfonamide] | 20% | 9.7% | 
COc1ccc(-c2nc(NN3C(=O)C=C(C)C3=O)c(C#N)c(SC)n2)cc1S(N)(=O)=O [Example 6, 5-(5-Cyano-4-(3-methyl-2,5-dioxo-2,5-dihydro-1H-pyrrol-1-ylamino)-6-(methylthio)pyrimidin-2-yl)-2-methoxybenzenesulfonamide] |  | 88% | GI50 (U251 cells): 0.92 µM; GI50 (NCIH460, HCT116, U251): 5.3 µM; GI50 (NCIH460 cells): 10.1 µM; GI50 (HCT116 cells): 4.9 µM
CSc1nc(-c2cccs2)nc(NN)c1C#N [Example 13, 4-Hydrazinyl-6-(methylthio)-2-(thiophen-2-yl)pyrimidine-5-carbonitrile] | 13% | 71% | 
COc1ccc(-c2nc(SC)c(C#N)c(N3CCN(c4ccccn4)CC3)n2)cc1 [Example 39, 2-(4-Methoxyphenyl)-4-(methylthio)-6-(4-(pyridin-2-yl)piperazin-1-yl)pyrimidine-5-carbonitrile] | 19.2% | 34% | 
CSc1nc(-c2ccccc2)nc(NN2C(=O)C=C(C)C2=O)c1C#N [Example 1, 4-(3-Methyl-2,5-dioxo-2,5-dihydro-1H-pyrrol-1-ylamino)-6-(methylthio)-2-phenylpyrimidine-5-carbonitrile] | 57.3% | 92.7% | inhibition at 10 µM (Thromboxane synthase): 96%; PDE4 inhibition at 10 μM (%) (PDE4): 61%; inhibition at 10 µM (5-LOX): 94%; ED50 (TNF-α [2]): 3.1 mg/kg; IBD-DSS Model % Inhibition of DAI at 50 mg/kg (DSS Induced colitis): 47%
